# Test results as given in article PMC12410356 (International Journal for Parasitology: Drugs and Drug …, 2025).
# Experiments:
# [1] = tested on: E. multilocularis metacestode vesicles; assay: Metacestode vesicle viability assay (ATP, CellTiter-Glo); assay type: cell-based, Echinococcus multilocularis
# Experimental: Viability was assessed after 12 days using the same metacestode vesicles as for the PGI release assay. Triton X-100 was added to each well to a final concentration of 0.1 %. Subsequently the metacestode vesicles were broken mechanically and 50 μL of the supernatant was mixed with 50 μL of CellTiter-Glo® buffer (Promega, Dübendorf, Switzerland). Measurements were performed on a HIDEX Sense microplate reader.
# [2] = tested on: E. multilocularis metacestode vesicles; assay: Phosphoglucose isomerase (PGI) release assay (damage-marker release) on metacestode vesicles; assay type: cell-based, Echinococcus multilocularis; conditions: overview screen, 10 μM, singlets, relative to 0.1 % Triton X-100, DMSO subtracted; for PGI d5 (relative PGI release): 5 days; for PGI d12 (relative PGI release): 12 days
# [3] = overview screen, 10 μM, singlets, 12 days, relative to DMSO control
Compound,Viability d12 (relative viability) ([1]; 10 µM) [%],PGI d5 (relative PGI release) [2] [%],PGI d12 (relative PGI release) [2] [%],"Viability d12 (relative viability) [1, 3] [%]"
C=C[C@]1(C)C[C@@H](OC(=O)CS[C@@H]2C[C@H]3CC[C@@H](C2)N3C)[C@]2(C)[C@H](C)CC[C@]3(CCC(=O)[C@H]32)[C@@H](C)[C@@H]1O [MMV1633674],92.0635,-1.377,19.1844,–
CC(C)c1cc2c(cc1S(=O)(=O)O)[C@@]1(C)CCC[C@@](C)(C(=O)O)[C@@H]1CC2 [MMV1633675],–,-5.75,-3.32,100.907
Nc1nc2c(ncn2[C@@H]2O[C@H](CO)[C@@H](O)[C@H]2F)c(=O)[nH]1 [MMV1633677],–,-0.3308,49.9588,216.057
CC[C@@]1(O)C(=O)OCc2c1cc1n(c2=O)Cc2cc3c(CN(C)C)c(O)ccc3nc2-1.Cl [MMV1633678],–,0.263,-2.724,288.666
CCc1ccccc1OCCN1CCCCCC1 [MMV1633962],–,1.217,-18.8642,159.976
O=C(O)/C=C/C=C/c1cccc(Oc2cc(Cl)cc(Cl)c2)c1 [MMV1633963],–,0.04404,0.4233,136.634
O=C(NCCN1CCCCC1)c1cccc(C(F)(F)F)c1 [MMV1633964],–,0.4856,-18.3006,94.8358
COc1c(NC(=O)[C@H]2CC[C@@H](COc3ccc([N+](=O)[O-])cc3)CC2)c(F)cc2c(=O)c(C(=O)O)cn(C3CC3)c12 [MMV1633965],–,0.7075,-11.0947,49.6807
Nc1nnnn1CCOc1c2[nH]c3ccc(Cl)cc3c2cc2c1[nH]c1ccc(Cl)cc12 [MMV1633966],–,3.53,16.3673,104.455
CCOC(=O)Nc1cc(NC(C)CC(C)CN(CC)CC)c2nc(-c3ccccc3)c(-c3ccccc3)nc2n1 (stereo not drawn) [MMV1633967],–,-2.798,-20.9085,104.121
Nc1nc(-c2ccccc2)nc2[nH]nc(Nc3ccc(C(F)(F)F)cc3)c12 [MMV1633968],–,0.2239,0.02121,133.404
O=C(O)c1ccc(-c2ccc(O[C@H]3O[C@H](CO)[C@@H](O)[C@H](O)[C@@H]3O)cc2)cc1 [MMV1633970],–,0.1129,-1.296,109.047
CCOc1noc2cc(OCCC3CCN(c4ccc(C)nn4)CC3)ccc12 [MMV1634071],–,0.1516,-20.1339,88.166
CCC(C)(C)c1ccc(CC(C)CN2C[C@@H](C)O[C@@H](C)C2)cc1.Cl (stereo partly drawn) [MMV1634358],–,0.7921,-20.4097,23.2957
CN(C/C=C/C#CC(C)(C)C)Cc1cccc2ccccc12 [MMV1634359],–,-1.48,-21.017,186.198
O=C1c2cccc3cccc(c23)C(=O)N1CC1CO1 (stereo not drawn) [MMV1634360],–,-2.544,17.7299,25.8841
N[C@H]1CCC[C@H]1C(=O)O [MMV1634361],–,0.2611,0.2526,78.6856
C[C@@H](c1nc(-c2ccc(C#N)cc2)cs1)[C@](O)(Cn1cncn1)c1ccc(F)cc1F [MMV1634362],103.703,-1.682,-23.6483,–
OB1OCc2cc(Cl)ccc21 [MMV1634363],–,-0.4278,-12.2339,101.699
CCc1cc(Nc2cc(=O)n(CCN3CCN(C(=O)c4ccccc4)CC3)c(=O)[nH]2)ccc1C [MMV1634383],–,0.8629,52.997,104.622
